From US20210113482A1, “Poly (Alkyl Cyanoacrylate) Nanoparticles for Use in Treatment of Cancer” (Sintef TTO AS, priority 2018, published 2021)
Read-outs that look alike come from different tables or passages of the source.

Tests used:
[1] = Biodistribution: CBZ in tumor and organs by LC-MS/MS in MAS98.12 bearing mice; assay type: in vivo; details: 15 mg/kg i.v.
Protocol: (§1) CBZ quantification by LC-MS/MS. CBZ, as the pure chemical or part of NPs, was quantified by LC-MS/MS, using an Agilent 1290 HPLC system coupled to an Agilent 6490 triple quadrupole mass spectrometer. The HPLC column was an Ascentis Express C8, 75×2.1 mm, 2.7 μm particles size with a 5×2.1 mm guard column of the same material (Sigma), run at 40° C. Eluent A was 25 mM formic acid in water and eluent B was 100% methanol, and flow rate was 0.5 ml/min. The mobile phase gradient was isocratic at 55% B for 1.5 min, then from 55% to 80% B over 1 min, followed by 1 min washout time and subsequently column re-equilibration. Injection volume was 5.00 μl. MS detection was in positive ESI mode (Agilent Jetstream) quantified in multiple reaction monitoring (MRM) mode using the transition m/z 858.3→577.2. The parent ion was chosen to be the Na adduct as this gave the best sensitivity. Similarly, the hexadeuterated internal standard was detected on the 864.4→583.2 transition. Both analytes were run at 380 V fragmentor and 20 V collision energy.
Processing of tissue samples before LC-MS/MS analyses. In order to process the tissue samples such that their CBZ content could be quantified, we developed a protocol for enzymatic digestion of tissue followed by extraction and quantification of CBZ using the LC-MS/MS method described above. The enzyme buffer consisted of Dulbecco's Modified Eagle Medium (DMEM, Thermo Fisher Scientific, USA, 41965039) with 1% (v/v) penicillin-streptomycin stock solution (Sigma-Aldrich, P0781) to a final concentration of 100 U/ml penicillin and 100 μg/ml streptomycin, 0.125 mg/ml papain (Merck, F275644), 2.5 mg/ml trypsin (Sigma-Aldrich, T7409), 0.8 mg/ml collagenase (Sigma-Aldrich, C7926), 0.69 mg/ml hyaluronidase (Sigma-Aldrich, H3506) and 1% (v/v) Triton X-100 (Sigma-Aldrich, T-8787). To determine the biodistribution of CBZ, frozen organs (liver, spleen, lymph nodes, kidneys, tumors) were thawed and freshly prepared enzyme buffer was added at 1 ml per 50 mg tissue; the entire organs were digested. The samples were heated to 37° C. for 72 h with vortexing once a day, until the tissue was completely dissolved. The tissue digests, as well as the plasma samples from the animals, were diluted 10× in acetone before centrifugation; this has the dual effect of both precipitating proteins and other macromolecules, thus cleaning up the sample, and making sure all CBZ is solubilized. Internal standard (hexadeuterated CBZ) dissolved in acetone was added to a final concentration of 10 ng/ml during the acetone dilution to correct for possible matrix effects.
Biodistribution and pharmacokinetics in blood. Blood and tissue samples were obtained following a single i.v. injection of PEBCA-CBZ and non-encapsulated CBZ (15 mg/kg) into the tail vein of mice bearing the MAS98.12 tumor (n=3). Empty particles (PEBCA) and saline were used as negative controls. The blood samples were taken either per tail vein puncture (approximately after 2 min and thereafter at 1, 4 and 24 h after injection) or by terminal cardiac puncture (96 h after injection) in Vacutainer tubes containing EDTA (BD Biosciences, San Jose, Calif., USA) and kept on ice. The 0-24 h samples were collected consecutively from the same animals (n=3) while samples after 96 h were obtained from separate mice (n=3). The blood was centrifuged for 15 min at 4° C. and 3400×g, and the supernatant plasma was collected and stored at −80° C. until LC-MS/MS analysis. […]

[2] = system: iNOS (M1, anti-tumorigenic pro-inflammatory macrophages); assay: Macrophage infiltration in treated MAS98.12 tumors, immunohistochemistry with anti-iNOS; assay type: in vivo, mice; details: 96 h after single injection
Protocol: (§2) Immunohistochemistry. Tumors from MAS98.12 bearing mice were collected 96 h after a single injection of the same substances as were injected in the MAS98.12 efficacy study. The tumors were preserved in 4% (v/v) formalin and then paraffinized and sliced to prepare consecutive slides (3 μm thick). The deparaffinization agent Neo-clear and mounting agent Neo-mount were obtained from VWR (Radnor, Pa., USA). Heat induced epitope retrieval was performed by placing deparaffinized slides with 10 mM sodium citrate buffer (pH 6.0) in water bath for 20 min at 100° C. Endogenous peroxidase activity was blocked by incubating slides with 3% (v/v) hydrogen peroxide in Tris-buffered saline (TBS; 50 mM Tris-Cl, 150 mM NaCl, pH 7.6). Sections were washed and blocking of non-specific binding was performed with 3% (w/v) bovine serum albumin (Roche diagnostics GmbH, Mannheim, Germany) in TBS for 30 min. Sections were then incubated for 60 min with the primary antibodies. […]
(§3) Stained tissue sections were scanned (NanoZoomer HT, Hamamatsu Photonics, Hamamatsu, Japan) using a 40× objective. The extent of CD68, iNOS and CD206 was automatically scored using the ImmunoPath software (Room4 Ltd., Crowborough, UK). […] The annotated representative areas were analyzed further by computerized image analysis. […]

[3] = system: MAS98.12 patient derived xenograft (PDX) breast tumor, basal-like; assay: Treatment efficacy in mice bearing MAS98.12 patient derived xenograft; assay type: in vivo
Protocol: (§4) Treatment efficacy evaluation in nude mice.
(§5) The ortothopically growing basal-like xenograft model MAS98.12 has been established in house and was used as previously described in Lindholm et al (2012). When using the MDA-MB-231 cell line, 1.5 million cells were injected into the mammary fat pad and growing tumors were used for sequential implantation. As for the MAS98.12 model, 1-2 mm^3 pieces of healthy tumor tissue were implanted bilaterally into the mammary fat pad of female athymic mice. After the tumors reached approximately 5 mm in diameter, the mice were randomly assigned to the different treatment groups (the average volume of each group was 49-57 mm^3).
Statistical analyses. To calculate the significance in the efficacy studies, the area under the curve was calculated for each tumor and the mean values of the groups were compared using the Welch unequal variance. To determine whether there is a significant difference between the frequencies of the tumor regression in the different treatment groups, we used the Fischer's exact test. If not stated otherwise, an unpaired two-sided Student t-test without Welch correction was used. The statistical analyses were performed using either GraphPad Prism (version 7.00 for Windows, GraphPad Software, La Jolla, Calif., US) or Microsoft Excel.

[4] = Pharmacokinetics in blood: CBZ in plasma by LC-MS/MS in MAS98.12 bearing mice; assay type: in vivo; details: female, athymic nude foxn1nu, mouse, iv, 15 mg/kg, 15 mg/kg i.v.
Protocol: as §1
Processing of tissue samples before LC-MS/MS analyses. In order to process the tissue samples such that their CBZ content could be quantified, we developed a protocol for enzymatic digestion of tissue followed by extraction and quantification of CBZ using the LC-MS/MS method described above. […]

[5] = system: MDA-MB-231 tumors; assay: Treatment efficacy in mice bearing MDA-MB-231 tumors; assay type: in vivo; details: 2×15 mg CBZ/kg i.v.
Protocol: as §4, §5

[6] = system: MDA-MB-231, MDA-MB-468 and MCF-7 cells; assay: In vitro cellular toxicity: MTT cell viability (72 h) and [3H]thymidine incorporation (24 h) in three breast cancer cell lines; assay type: cell-based, human; details: MTT assay, 72 h incubation, all cell lines
Protocol: Cell lines. Three breast cancer cell lines were used in this study. The MDA-MB-231 (triple negative; Claudin low), was cultured in RPMI 1640; the MDA-MB-468 (triple negative; basal) and the MCF-7 (luminal A) cell lines were cultured in DMEM. All medium was fortified with 10% (w/v) fetal calf serum albumin (Sigma) and 100 units/ml penicillin/streptomycin (PenStrep®, Sigma). All cell lines were obtained from ATCC and were routinely tested for mycoplasma. Cells growing in 24- or 96-well plates were incubated with serial dilutions of PEBCA-CBZ, CBZ (non-encapsulated CBZ) dissolved in Tween-80 (Fluka)), and PEBCA without CBZ for 24, 48 or 72 h at 37° C. in an atmosphere of 5% CO2. The toxicity was assessed either by the commonly used MTT (3-(4,5-dimethylthiazol-2-yl)-2,5-diphenyltetrazolium bromide) cell viability assay, by measuring cell proliferation based on [^3H]thymidine incorporation, by measuring protein synthesis by incorporation of [^3H]leucine and by measuring ATP levels using CellTiter Glo®.
MTT cell viability assay. […] The absorbance was read in a plate reader (Biosys Ltd, Essex, UK) at 570 nm, and background from absorbance at 650 nm was subtracted.
Cell proliferation measured by [^3H]thymidine incorporation. […] The radioactivity was counted for 1 min in a scintillation counter (Tri-Carb 2100TR, Packard Bioscience, USA).

[7] = system: CD68 (whole macrophage population); assay: Macrophage infiltration in treated MAS98.12 tumors, immunohistochemistry with anti-CD68; assay type: in vivo, mice; details: 96 h after single injection; compared to free CBZ or saline; not statistically significant
Protocol: as §2, §3

[8] = system: CD206 (M2, pro-tumorigenic anti-inflammatory macrophages); assay: Macrophage infiltration in treated MAS98.12 tumors, immunohistochemistry with anti-CD206; assay type: in vivo, mice; details: 96 h after single injection
Protocol: as §2, §3

change of CBZ concentration in tissue from 24 to 96 h [1]: significantly lower in tumors after 96 h
CBZ level in tumor relative to the PEBCA-CBZ group ([1]; 24 h): about ⅓
tissue with the highest CBZ amount ([1]; 24 h): the tumor
tissues in which CBZ could be detected (above LOQ) ([1]; 96 h): only in the tumor tissue
CBZ concentration in tumors relative to that after PEBCA-CBZ ([1]; 96 h, difference not significant (p=0.18)): approximately 50%
half-life ([4]; from mean values of the two last time points (24 and 96 h), read-out: elimination half-life (converted)): ~3600 min
half-life ([4]; interpolation of the two first data points (up to 1 hr), read-out: distribution half-life): ~30 min
SMILES: CO[C@H]1C(=O)[C@]2(C)[C@@H](OC)C[C@H]3OC[C@@]3(OC(C)=O)[C@H]2[C@H](OC(=O)c2ccccc2)[C@]2(O)C[C@H](OC(=O)[C@H](O)[C@@H](NC(=O)OC(C)(C)C)c3ccccc3)C(C)=C1C2(C)C [CBZ, cabazitaxel]
pro-inflammatory M1 macrophages (iNOS) in tumors [2]: no response in the macrophage populations
Tumor growth ([3]; 2×15 mg CBZ/kg i.v. (particle dose 2×175 mg/kg), day 33 and 36): markedly inhibited tumor growth
tumors in complete remission ([3]; 2×15 mg CBZ/kg i.v., non-palpable tumors at day 57 after implantation): 2 out of 9
Tumor growth [5]: a delay in tumor growth was observed
efficacy compared to MAS98.12 [5]: less effective
fraction of the cells surviving even very high CBZ concentrations [6]: 10-20%
total tumor infiltrating macrophages (CD68) [7]: no response in the macrophage populations
anti-inflammatory M2 macrophages (CD206 positive cells) in tumors [8]: no response in the macrophage populations
